Laboratory results from patent publication US12582607B2, “Implantable medical devices for extended release of therapeutic agents” (Nano Precision Medical, Inc., priority 2014, dated 2026).
One block for each compound: values may come before it.

Legend:
[1] = In vitro release of stabilizers from implantable devices and disassembly of the devices (Contemplated Examples); assay type: physicochemical; details: for pH maintained inside device: disassembly of devices at 2 months, 26 mM bis-tris buffer, 154 mM NaCl; for pH maintained inside device / duration for which stabilizer level (pH or concentration) is maintained in device: 37° C.; for release rate profile of stabilizer out of device through nanoporous membrane: in vitro testing, reverse phase HPLC; for duration for which stabilizer level (pH or concentration) is maintained in device: in vitro
From the text: In the examples below the devices that are used include titanium capsules of approximately 25 mm length and 2.25 mm diameter. A titanium substrate with a titanium oxide nanoporous membrane is welded to one end of the device. […] A silicone septum is located at the other end of the device. Extended-release configurations of stabilizers, prepared as described further below, are incorporated into the reservoirs before final attachment of the membrane and septum on the device. A formulation solvent is filled into the device as per methods in PCT/US2021/019559. Briefly, the formulation solvent is loaded into a filler apparatus with a hollow needle to pierce the septum. A vacuum is applied to the membrane of the device to reduce the pressure inside the reservoir, and the formulation is injected through the septum into the reservoir through the needle. The durability of the presence of stabilizers inside devices of the disclosure may be tested by measuring release of the stabilizers from the devices in vitro. In vitro testing is performed by submerging the devices in 3 ml of a 26 mM bis-tris buffer, 154 mM NaCl on a shaker plate at 37° C. and measuring the amounts of stabilizer released at regular intervals by reverse phase HPLC.

[2] = cited from earlier work
[3] = Forced degradation study of exenatide with and without PLGA in titanium reservoirs with nanotube membrane; purity of released exenatide by HPLC; assay type: physicochemical; details: 37 C, devices in PBS pH 7.4 with full access to air; for Exenatide purity over time (% purity), 7 days: day 7; for Exenatide purity over time (% purity), 14 days: day 14; for Exenatide purity over time (% purity), 28 days: day 28; for Exenatide purity over time (% purity), 35 days: day 35; for Exenatide purity over time (% purity), 42 days: day 42; for Exenatide purity over time (% purity), 56 days: day 56
Protocol: To avoid confounding factors, no other stabilizers were used in the study.
The devices were incubated in phosphate buffered saline (pH 7.4) under full access to air (oxygen).

Compound: O=C(O)c1ccccc1 [benzoic acid]
- pH maintained inside device [1]: below 6
- release rate profile of stabilizer out of device through nanoporous membrane [1]: declining with approximately the square root of time
- duration for which stabilizer level (pH or concentration) is maintained in device [1]: at least 2 months

- stabilizer concentration maintained in device ([1]; disassembly of devices at 4 months): at least 0.05%
- release rate profile of stabilizer out of device through nanoporous membrane [1]: approximately constant rate
- duration for which stabilizer level (pH or concentration) is maintained in device [1]: at least 4 months
Compound: Oc1ccc(O)cc1 [hydroquinone, Hydroquinone]

Compound: Cc1cc(C(C)(C)C)c(O)c(C(C)(C)C)c1 [butylated hydroxytoluene]
- reported solubility in water [2]: about 1 ppm

- pH maintained inside device [1]: above 8
- duration for which stabilizer level (pH or concentration) is maintained in device [1]: at least 2 months
Compound: [H]/N=C(\N/C(=N/[H])NCCCCCCNC(=N)NC(=N)Nc1ccc(Cl)cc1)Nc1ccc(Cl)cc1 [chlorhexidine, Chlorhexidine]
- release rate profile of stabilizer out of device through nanoporous membrane [1]: declining with approximately the square root of time

- stabilizer concentration maintained in device ([1]; disassembly of devices at 3 months): at least 0.05%
- duration for which stabilizer level (pH or concentration) is maintained in device [1]: at least 3 months
Compound: CCCOC(=O)c1cc(O)c(O)c(O)c1 [propyl gallate]
- release rate profile of stabilizer out of device through nanoporous membrane [1]: declining with approximately the square root of time

Compound: Exenatide only: 20% (w/v) exenatide solution in Water For Injection with 0.04% NaN3, no PLGA, non-irradiated
- Exenatide purity over time (% purity), 7 days [3]: 99 % purity
- Exenatide purity over time (% purity), 14 days [3]: 89 % purity
- Exenatide purity over time (% purity), 28 days [3]: 87 % purity
- Exenatide purity over time (% purity), 35 days [3]: 82 % purity
- Exenatide purity over time (% purity), 42 days [3]: 72 % purity
- Exenatide purity over time (% purity), 56 days [3]: 62 % purity

Compound: Exenatide only (Irradiated): E-beam irradiated (25k Gray) exenatide solution 200 mg/ml, no PLGA
- Exenatide purity over time (% purity), 7 days [3]: 96 % purity
- Exenatide purity over time (% purity), 14 days [3]: 91 % purity
- Exenatide purity over time (% purity), 28 days [3]: 82 % purity
- Exenatide purity over time (% purity), 35 days [3]: 75 % purity
- Exenatide purity over time (% purity), 42 days [3]: 66 % purity
- Exenatide purity over time (% purity), 56 days [3]: 51 % purity
